Several values for one entry are separate records, joined by “and”; a condition that tells them apart may be missing. Equal values may be shown once. Inconclusive results and toxic doses are left out. Rule as the data show it: active = T/C of 150% or more; inactive = T/C below 125%.
System: L1210 leukemia ip in BDF1 mice, survival T/C
Test: NCI In Vivo Anticancer Drug Screen. Data for tumor model L1210 Leukemia (intraperitoneal) in B6D2F1 (BDF1) mice
Conditions: endpoint: mean survival time, higher = longer survival
In short: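 Each compound was tested against a transplantable tumor grown in mice. The endpoint was survival, with treated animals benchmarked against vehicle controls as a simple ratio.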

[1] = dose: 100.0 mg/kg/injection, schedule: Q04DX002 (ip), vehicle: Klucel (hydroxypropylcellulose) (HPC)
[2] = dose: 200.0 mg/kg/injection, schedule: Q04DX002 (ip), vehicle: Klucel (hydroxypropylcellulose) (HPC)
[3] = dose: 400.0 mg/kg/injection, schedule: Q04DX002 (ip), vehicle: Klucel (hydroxypropylcellulose) (HPC)
[4] = dose: 100.0 mg/kg/injection, schedule: Q04DX002 (ip), vehicle: gum acacia
[5] = dose: 100.0 mg/kg/injection, schedule: Q01DX009 (ip), vehicle: saline with Tween-80
[6] = dose: 200.0 mg/kg/injection, schedule: Q01DX009 (ip), vehicle: saline with Tween-80
[7] = dose: 75.0 mg/kg/injection, schedule: Q01DX001 (ip), vehicle: saline
[8] = dose: 150.0 mg/kg/injection, schedule: Q01DX001 (ip), vehicle: saline
[9] = dose: 300.0 mg/kg/injection, schedule: Q01DX001 (ip), vehicle: saline
[10] = dose: 100.0 mg/kg/injection, schedule: Q01DX001 (ip), vehicle: carboxymethylcellulose (CMC)
[11] = dose: 200.0 mg/kg/injection, schedule: Q01DX001 (ip), vehicle: carboxymethylcellulose (CMC)
[12] = dose: 400.0 mg/kg/injection, schedule: Q01DX001 (ip), vehicle: carboxymethylcellulose (CMC)
[13] = dose: 100.0 mg/kg/injection, schedule: Q04DX003 (ip), vehicle: saline with Tween-80
[14] = dose: 200.0 mg/kg/injection, schedule: Q04DX003 (ip), vehicle: saline with Tween-80
[15] = dose: 400.0 mg/kg/injection, schedule: Q04DX003 (ip), vehicle: saline with Tween-80
[16] = dose: 100.0 mg/kg/injection, schedule: Q01DX009 (ip), vehicle: Klucel (hydroxypropylcellulose) (HPC)
[17] = dose: 200.0 mg/kg/injection, schedule: Q01DX009 (ip), vehicle: Klucel (hydroxypropylcellulose) (HPC)

Measured: T/C

ON=C1c2ccccc2-c2ccccc21
inactive: [1] 96 % of control | [2] 93 % of control | [3] 104 % of control

OC1(C2(O)CCCCC2)CCCCC1
inactive: [4] 101 % of control | dose: 200.0 mg/kg/injection, schedule: Q04DX002 (ip), vehicle: gum acacia 104 % of control | dose: 400.0 mg/kg/injection, schedule: Q04DX002 (ip), vehicle: gum acacia 96 % of control

COc1ccc(P(=S)(S)c2ccc(OC)cc2)cc1
inactive: dose: 100.0 mg/kg/injection, schedule: Q04DX003 (ip), vehicle: acetone 94 % of control | dose: 200.0 mg/kg/injection, schedule: Q04DX003 (ip), vehicle: acetone 100 % of control | dose: 400.0 mg/kg/injection, schedule: Q04DX003 (ip), vehicle: acetone 90 % of control

CN(C)C(=S)SC1OC(CO)C(SC(=S)N(C)C)OC1CO (centres undefined)
inactive: dose: 50.0 mg/kg/injection, schedule: Q01DX009 (ip), vehicle: saline with Tween-80 97 % of control | [5] 104 % of control | [6] 97 % of control

Cc1cc(NC(=O)COc2ccc([N+](=O)[O-])cc2Cl)ccc1S(=O)(=O)F
inactive: dose: 100.0 mg/kg/injection, schedule: Q01DX001 (ip), vehicle: saline with Tween-80 102 % of control | dose: 200.0 mg/kg/injection, schedule: Q01DX001 (ip), vehicle: saline with Tween-80 98 % of control | dose: 400.0 mg/kg/injection, schedule: Q01DX001 (ip), vehicle: saline with Tween-80 93 % of control

Cc1noc(C)c1CON
inactive: [7] 100 % of control and 102 % of control | [8] 105 % of control | [9] 94 % of control and 91 % of control

Cc1nnc2c3ccccc3cnn12
inactive: dose: 75.0 mg/kg/injection, schedule: Q01DX001 (ip), vehicle: carboxymethylcellulose (CMC) 98 % of control | dose: 150.0 mg/kg/injection, schedule: Q01DX001 (ip), vehicle: carboxymethylcellulose (CMC) 97 % of control | dose: 300.0 mg/kg/injection, schedule: Q01DX001 (ip), vehicle: carboxymethylcellulose (CMC) 98 % of control

Nc1ccc2c(c1)/C(=N/O)c1cc([N+](=O)[O-])ccc1-2
inactive: [10] 100 % of control | [11] 105 % of control | [12] 112 % of control

NC(=O)OCCCCCCOC(N)=O
inactive: [13] 90 % of control | [14] 90 % of control | [15] 87 % of control

O=C(O)CCCCSCCSCCCCC(=O)O
inactive: [16] 101 % of control | [17] 94 % of control | dose: 400.0 mg/kg/injection, schedule: Q01DX009 (ip), vehicle: Klucel (hydroxypropylcellulose) (HPC) 86 % of control

COC(=O)c1ccc(F)cc1
inactive: dose: 50.0 mg/kg/injection, schedule: Q01DX001 (ip), vehicle: carboxymethylcellulose (CMC) 92 % of control | [10] 97 % of control | [11] 97 % of control | [12] 95 % of control

CC(=Nc1c2c(nc3ccccc13)CCCC2)N(C)C
inactive: dose: 12.0 mg/kg/injection, schedule: Q04DX003 (ip), vehicle: Klucel (hydroxypropylcellulose) (HPC) 105 % of control | dose: 25.0 mg/kg/injection, schedule: Q04DX003 (ip), vehicle: Klucel (hydroxypropylcellulose) (HPC) 100 % of control | dose: 50.0 mg/kg/injection, schedule: Q04DX003 (ip), vehicle: Klucel (hydroxypropylcellulose) (HPC) 104 % of control

CC(=O)NC(C)CC(C)C (centres undefined)
inactive: dose: 100.0 mg/kg/injection, schedule: Q04DX003 (ip), vehicle: saline 113 % of control | dose: 200.0 mg/kg/injection, schedule: Q04DX003 (ip), vehicle: saline 103 % of control

CC(C)c1ccc2c(c1)CCC1C(CN=C(N)CSS(=O)(=O)O)CCCC21C (centres undefined)
inactive: dose: 75.0 mg/kg/injection, schedule: Q01DX001 (ip), vehicle: saline with Tween-80 95 % of control | dose: 150.0 mg/kg/injection, schedule: Q01DX001 (ip), vehicle: saline with Tween-80 102 % of control

C=CCNC(=S)Nc1cc(Cl)ccc1C
inactive: [16] 90 % of control | dose: 100.0 mg/kg/injection, schedule: Q04DX003 (ip), vehicle: Klucel (hydroxypropylcellulose) (HPC) 92 % of control | [17] 86 % of control | dose: 200.0 mg/kg/injection, schedule: Q04DX003 (ip), vehicle: Klucel (hydroxypropylcellulose) (HPC) 100 % of control | dose: 400.0 mg/kg/injection, schedule: Q04DX003 (ip), vehicle: Klucel (hydroxypropylcellulose) (HPC) 95 % of control

COC(=O)c1ccccc1N=NN(C)C1CCCCC1
inactive: dose: 100.0 mg/kg/injection, schedule: Q01DX009 (ip), vehicle: other 106 % of control | dose: 200.0 mg/kg/injection, schedule: Q01DX009 (ip), vehicle: other 87 % of control

c1ccc(C2O[O][Sn]([c]3ccccc3)([c]3ccccc3)[O]2)cc1 (centres undefined)
inactive: dose: 25.0 mg/kg/injection, schedule: Q04DX002 (ip), vehicle: gum acacia 97 % of control | dose: 50.0 mg/kg/injection, schedule: Q04DX002 (ip), vehicle: gum acacia 111 % of control | [4] 105 % of control and 86 % of control

Cc1cc(N)n(C(N)=O)n1
inactive: [5] 102 % of control | [13] 106 % of control | [6] 110 % of control | [14] 107 % of control | dose: 400.0 mg/kg/injection, schedule: Q01DX009 (ip), vehicle: saline with Tween-80 108 % of control | [15] 109 % of control

C1=Cc2ccccc2/C1=C/c1ccc(/C=C2\C=Cc3ccccc32)cc1
inactive: [13] 92 % of control | [14] 89 % of control | [15] 89 % of control

CC1(C)OC2OC(COC(=O)c3ccc([N+](=O)[O-])cc3)C(OC(=O)c3ccc([N+](=O)[O-])cc3)C2O1 (centres undefined)
inactive: dose: 100.0 mg/kg/injection, schedule: Q01DX001 (ip), vehicle: steriod suspending solution 87 % of control | dose: 200.0 mg/kg/injection, schedule: Q01DX001 (ip), vehicle: steriod suspending solution 95 % of control | dose: 400.0 mg/kg/injection, schedule: Q01DX001 (ip), vehicle: steriod suspending solution 104 % of control

CC12C(=O)NC(=O)N3CCCN4C(=O)NC(=O)C1(C)C4C32 (centres undefined)
inactive: [7] 94 % of control | [8] 97 % of control | [9] 100 % of control

COc1ccc(C(=O)/C=C\c2ccc(Cl)c(Cl)c2)cc1
inactive: [1] 100 % of control | [2] 97 % of control | [3] 107 % of control

Source: PubChem BioAssay AID248 (DTP/NCI, 2004)
